Results from US20050171358A1 (priority 2002, published 2005).

Legend:
Phytophthora infestans = assay type: in vivo; details: 125 ppm, 200 L/10 a spray on tomato (5 leaf stage), inoculated next day; diseased area rates of third to fifth true leaves after 3 days in green house, graded by Table 5
Pyricularia oryzae = assay type: in vivo; details: 200 ppm spray on rice (Koshihikari, 3 leaf stage), inoculated next day; lesion numbers on third leaves after 7 days in green house, graded by Table 5
[1] = test system: Colletotrichum lagenarium; details: 200 ppm spray on cucumber (3 leaf stage), inoculated next day; lesion numbers on first and second leaves after 7 days in green house, graded by Table 5

COc1ccc(C(=O)NCc2cc(CN3Cc4ccccc4C3)no2)cc1
Evaluation (effect for tomato late blight) (Phytophthora infestans): 1 (21˜41)

O=C(Cc1ccccc1)NCc1cc(CCl)no1 [I-67, N-[(3-chloromethyl-5-isoxazolyl)methyl]phenylacetamide]
Evaluation (effect for tomato late blight) (Phytophthora infestans): 2 (11˜20)

O=C(NCc1cc(CCl)no1)C1CCCCC1 [III-233, N-[(3-chloromethyl-5-isoxazolyl)methyl]cyclohexanecarboxamide]
Evaluation (effect for tomato late blight) (Phytophthora infestans): 2 (11˜20)

O=C(NCc1cc(CCl)no1)c1ccc(Br)cc1 [III-260, N-[(3-chloromethyl-5-isoxazolyl)methyl]-4-bromobenzamide]
Evaluation (effect for tomato late blight) (Phytophthora infestans): 3 (6˜10)

O=C(NCc1cc(CCl)no1)c1ccc(C(F)(F)F)cc1 [III-261, N-[(3-chloromethyl-5-isoxazolyl)methyl]-4-trifluoromethylbenzamide]
Evaluation (effect for tomato late blight) (Phytophthora infestans): 2 (11˜20)

O=C(C=Cc1ccccc1)NCc1cc(CCl)no1 [III-266, N-[(3-chloromethyl-5-isoxazolyl)methyl]-β-phenylacrylamide]
Evaluation (effect for tomato late blight) (Phytophthora infestans): 1 (21˜41)

O=C(NCc1cc(CCl)no1)c1cccc2ccccc12 [III-268, N-[(3-chloromethyl-5-isoxazolyl)methyl]-1-naphthalenecarboxamide]
Evaluation (effect for tomato late blight) (Phytophthora infestans): 0 (41 or more)

O=C(NCc1cc(CCl)no1)c1ccc(OCCl)cc1 [III-270, N-[(3-chloromethyl-5-isoxazolyl)methyl]-4-chloromethyloxybenzamide]
Evaluation (effect for tomato late blight) (Phytophthora infestans): 2 (11˜20)

CO/N=C/c1ccc(OCc2cc(CNC(=O)c3ccc(OC)cc3)on2)cc1 [IV-75]
Evaluation (effect for rice blast) (Pyricularia oryzae): 2 (11˜20) | Evaluation (effect for cucumber anthracnose) [1]: 3 (6˜10)

COc1ccc(C(=O)NCc2cc(COc3c(C)cccc3C)no2)cc1 [IV-80, N-{[3-(2,6-dimethylphenyl)oxymethyl-5-isoxazolyl]methyl}-4-methoxybenzamide]
Evaluation (effect for rice blast) (Pyricularia oryzae): 4 (1˜5) | Evaluation (effect for cucumber anthracnose) [1]: 4 (1˜5)

COc1ccc(C(=O)NCc2cc(C(=O)Nc3ccccc3)no2)cc1 [IV-84, N-[(3-phenylaminocarbonyl-5-isoxazolyl)methyl]-4-methoxybenzamide]
Evaluation (effect for rice blast) (Pyricularia oryzae): 5 (0) | Evaluation (effect for cucumber anthracnose) [1]: 5 (0)

COc1ccc(C(=O)NCc2cc(COc3c(F)cccc3F)no2)cc1 [IV-86, N-{[3-(2,6-difluorophenyl)oxymethyl-5-isoxazolyl]methyl}-4-methoxybenzamide]
Evaluation (effect for rice blast) (Pyricularia oryzae): 5 (0) | Evaluation (effect for cucumber anthracnose) [1]: 5 (0)

COc1ccc(C(=O)NCc2cc(COc3ccc(C(C)=O)cc3)no2)cc1 [IV-87, N-{[3-(4-acetylphenyl)oxymethyl-5-isoxazolyl]methyl}-4-methoxybenzamide]
Evaluation (effect for rice blast) (Pyricularia oryzae): 5 (0) | Evaluation (effect for cucumber anthracnose) [1]: 4 (1˜5)

CNC(=O)c1ccc(OCc2cc(CNC(=O)c3ccc(OC)cc3)on2)cc1 [IV-88, N-{[3-(4-methylaminocarbonylphenyl)oxymethyl-5-isoxazolyl]methyl}-4-methoxybenzamide]
Evaluation (effect for rice blast) (Pyricularia oryzae): 3 (6˜10) | Evaluation (effect for cucumber anthracnose) [1]: 3 (6˜10)

COc1ccc(C(=O)NCc2cc(/C=C/c3ccco3)no2)cc1 [IV-89, N-{[3-(2-(2-furyl)ethenyl)-5-isoxazolyl]methyl}-4-methoxybenzamide]
Evaluation (effect for rice blast) (Pyricularia oryzae): 5 (0) | Evaluation (effect for cucumber anthracnose) [1]: 5 (0)

COc1ccc(C(=O)NCc2cc(COc3ccncc3)no2)cc1 [IV-90, N-{[3-(4-pyridyl)oxymethyl-5-isoxazolyl]methyl}-4-methoxybenzamide]
Evaluation (effect for rice blast) (Pyricularia oryzae): 3 (6˜10) | Evaluation (effect for cucumber anthracnose) [1]: 3 (6˜10)

COc1ccc(C(=O)NCc2cc(COc3ccccn3)no2)cc1 [IV-92, N-{[3-(2-pyridyl)oxymethyl-5-isoxazolyl]methyl}-4-methoxybenzamide]
Evaluation (effect for rice blast) (Pyricularia oryzae): 4 (1˜5) | Evaluation (effect for cucumber anthracnose) [1]: 3 (6˜10)

COc1ccc(C(=O)NCc2cc(C(=O)Nc3ccc(OC(F)F)cc3)no2)cc1 [IV-93, N-{[3-(4-difluoromethyloxyphenyl)aminocarbonyl-5-isoxazolyl]methyl}-4-methoxybenzamide]
Evaluation (effect for rice blast) (Pyricularia oryzae): 4 (1˜5) | Evaluation (effect for cucumber anthracnose) [1]: 3 (6˜10)

COc1ccc(NC(=O)c2cc(CNC(=O)c3ccc(OC)cc3)on2)cc1 [IV-94, N-{[3-(4-methoxyphenyl)aminocarbonyl-5-isoxazolyl]methyl}-4-methoxybenzamide]
Evaluation (effect for rice blast) (Pyricularia oryzae): 2 (11˜20) | Evaluation (effect for cucumber anthracnose) [1]: 3 (6˜10)

COc1ccc(C(=O)NCc2cc(C(=O)Nc3ccc(F)cc3)no2)cc1 [IV-95, N-{[3-(4-fluorophenyl)aminocarbonyl-5-isoxazolyl]methyl}-4-methoxybenzamide]
Evaluation (effect for rice blast) (Pyricularia oryzae): 4 (1˜5) | Evaluation (effect for cucumber anthracnose) [1]: 4 (1˜5)

COc1ccc(C(=O)NCc2cc(C(=O)Nc3ccccc3Cl)no2)cc1 [IV-96, N-{[3-(2-chlorophenyl)aminocarbonyl-5-isoxazolyl]methyl}-4-methoxybenzamide]
Evaluation (effect for rice blast) (Pyricularia oryzae): 4 (1˜5) | Evaluation (effect for cucumber anthracnose) [1]: 4 (1˜5)

COc1ccc(C(=O)NCc2cc(C(=O)Nc3ccc(C#N)cc3)no2)cc1 [IV-97, N-{[3-(4-cyanophenyl)aminocarbonyl-5-isoxazolyl]methyl}-4-methoxybenzamide]
Evaluation (effect for rice blast) (Pyricularia oryzae): 5 (0) | Evaluation (effect for cucumber anthracnose) [1]: 5 (0)

O=C(/C=C/c1ccccc1)NCc1cc(COc2ccccc2)no1 [IV-99, N-[(3-phenoxymethyl-5-isoxazolyl)methyl]-β-phenylacrylamide]
Evaluation (effect for rice blast) (Pyricularia oryzae): 4 (1˜5) | Evaluation (effect for cucumber anthracnose) [1]: 4 (1˜5)

COc1ccc(C(=O)NCc2cc(C(=O)Nc3cccc(Cl)c3)no2)cc1 [IV-105, N-{[3-(3-chlorophenyl)aminocarbonyl-5-isoxazolyl]methyl}-4-methoxybenzamide]
Evaluation (effect for rice blast) (Pyricularia oryzae): 3 (6˜10) | Evaluation (effect for cucumber anthracnose) [1]: 3 (6˜10)

COc1ccc(C(=O)NCc2cc(C(=O)Nc3ccc(F)cc3F)no2)cc1 [IV-107, N-{[3-(2,4-difluorophenyl)aminocarbonyl-5-isoxazolyl]methyl}-4-methoxybenzamide]
Evaluation (effect for rice blast) (Pyricularia oryzae): 5 (0) | Evaluation (effect for cucumber anthracnose) [1]: 5 (0)

COc1ccc(C(=O)NCc2cc(C(=O)Nc3ccc(C)cc3)no2)cc1 [IV-108, N-{[3-(4-tolyl)aminocarbonyl-5-isoxazolyl]methyl}-4-methoxybenzamide]
Evaluation (effect for rice blast) (Pyricularia oryzae): 2 (11˜20) | Evaluation (effect for cucumber anthracnose) [1]: 2 (11˜20)

COc1ccc(C(=O)NCc2cc(C#Cc3ccccc3)no2)cc1 [IV-110, N-[(3-phenylethynyl-5-isoxazolyl)methyl]-4-methoxybenzamide]
Evaluation (effect for rice blast) (Pyricularia oryzae): 5 (0) | Evaluation (effect for cucumber anthracnose) [1]: 5 (0)

COCc1cc(CNC(=O)c2ccc(OC)cc2)on1 [IV-111, N-[(3-methoxymethyl-5-isoxazolyl)methyl]-4-methoxybenzamide]
Evaluation (effect for rice blast) (Pyricularia oryzae): 3 (6˜10) | Evaluation (effect for cucumber anthracnose) [1]: 3 (6˜10)

COc1ccc(C(=O)NCc2cc(C(=O)Nc3ccccc3C#N)no2)cc1 [IV-112, N-{[3-(2-cyanophenyl)aminocarbonyl-5-isoxazolyl]methyl}-4-methoxybenzamide]
Evaluation (effect for rice blast) (Pyricularia oryzae): 2 (11˜20) | Evaluation (effect for cucumber anthracnose) [1]: 3 (6˜10)

O=C(NCc1cc(C(=O)Nc2ccccc2)no1)c1ccccc1 [IV-113, N-[(3-phenylaminocarbonyl-5-isoxazolyl)methyl]benzamide]
Evaluation (effect for rice blast) (Pyricularia oryzae): 4 (1˜5) | Evaluation (effect for cucumber anthracnose) [1]: 4 (1˜5)

O=C(NCc1cc(C(=O)Nc2ccccc2)no1)c1ccc(Cl)cc1 [IV-114, N-[(3-phenylaminocarbonyl-5-isoxazolyl)methyl]-4-chlorobenzamide]
Evaluation (effect for rice blast) (Pyricularia oryzae): 5 (0) | Evaluation (effect for cucumber anthracnose) [1]: 5 (0)

Cc1ccc(C(=O)NCc2cc(C(=O)Nc3ccccc3)no2)cc1 [IV-115, N-[(3-phenylaminocarbonyl-5-isoxazolyl)methyl]-4-methylbenzamide]
Evaluation (effect for rice blast) (Pyricularia oryzae): 5 (0) | Evaluation (effect for cucumber anthracnose) [1]: 5 (0)

Cc1cccc(C(=O)NCc2cc(C(=O)Nc3ccccc3)no2)c1 [IV-116, N-[(3-phenylaminocarbonyl-5-isoxazolyl)methyl]-3-methylbenzamide]
Evaluation (effect for rice blast) (Pyricularia oryzae): 5 (0) | Evaluation (effect for cucumber anthracnose) [1]: 4 (1˜5)

Cc1ccccc1C(=O)NCc1cc(C(=O)Nc2ccccc2)no1 [IV-117, N-[(3-phenylaminocarbonyl-5-isoxazolyl)methyl]-2-methylbenzamide]
Evaluation (effect for rice blast) (Pyricularia oryzae): 4 (1˜5) | Evaluation (effect for cucumber anthracnose) [1]: 4 (1˜5)

COc1ccc(C(=O)NCc2cc(C(=O)NC(C)(C)C)no2)cc1 [IV-119, N-[(3-tert-butylaminocarbonyl-5-isoxazolyl)methyl]-4-methoxybenzamide]
Evaluation (effect for rice blast) (Pyricularia oryzae): 2 (11˜20) | Evaluation (effect for cucumber anthracnose) [1]: 3 (6˜10)

COc1ccc(C(=O)NCc2cc(C(=O)NC3CCCC3)no2)cc1 [IV-120, N-[(3-cyclopentylaminocarbonyl-5-isoxazolyl)methyl]-4-methoxybenzamide]
Evaluation (effect for rice blast) (Pyricularia oryzae): 3 (6˜10) | Evaluation (effect for cucumber anthracnose) [1]: 2 (11˜20)

O=C(NCc1cc(COc2ccccc2)no1)C1CCCCC1 [IV-121, N-[(3-phenoxymethyl-5-isoxazolyl)methyl)cyclohexanecarboxamide]
Evaluation (effect for rice blast) (Pyricularia oryzae): 4 (1˜5) | Evaluation (effect for cucumber anthracnose) [1]: 4 (1˜5)

O=C(NCc1cc(COc2ccccc2)no1)c1cc(Cl)nc(Cl)c1 [IV-122, N-[(3-phenoxymethyl-5-isoxazolyl)methyl]-2,6-dichloropyridine-4-carboxamide]
Evaluation (effect for rice blast) (Pyricularia oryzae): 3 (6˜10) | Evaluation (effect for cucumber anthracnose) [1]: 2 (11˜20)

COc1ccc(C(=O)NCc2cc(/C=N/OCc3ccccc3)no2)cc1 [IV-124, N-[(3-benzyloxyiminomethyl-5-isoxazolyl)methyl]-4-methoxybenzamide]
Evaluation (effect for rice blast) (Pyricularia oryzae): 5 (0) | Evaluation (effect for cucumber anthracnose) [1]: 5 (0)
